Consider 15 compounds from US20220315567A1 (priority 2016, published 2022).

Like-named read-outs stand apart in the source and are kept apart here.

In data set [1] the target is T1, human OPRM1 (μ, MOR) (Homo sapiens, UniProt P35372).
T1 construct: host or cells: CHO-K1
In words: cell-based. The following applies: for Emax: OPRM1, read-out: β-Arrestin Emax; for EC50: PathHunter human OPRM1 Arrestin CHO-K1 cell line, read-out: β-Arrestin EC50. In outline: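 β-Arrestin-2 recruitment was measured in PathHunter CHO-K1 cells expressing ED-tagged human OPRM1 and EA-fused arrestin. Agonist-driven recruitment restores β-galactosidase activity by enzyme fragment complementation, read by chemiluminescence.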

For data set [2], the target named is T1, human OPRM1 (μ, MOR). Briefly: cell-based. The following applies: for Emax: OPRM1, read-out: cAMP Emax; for EC50: PathHunter human OPRM1 Arrestin CHO-K1 cell line, read-out: cAMP EC50. On the procedure: G-protein signaling was measured via second messenger cAMP modulation. Detection of cAMP modulation was accomplished in the PathHunter human OPRM1 (μ, MOR) Arrestin CHO-K1 cell line using the Dynamic2 cAMP Kit from Cisbio.

Data set [3] concerns the target T1, human OPRM1 (μ, MOR). It counts as cell-based. The following applies: for ΔRA of compound: relative activity from EC50 and Emax of β-arrestin vs cAMP, lower RA = more G-protein biased. The method in brief:
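Activity measured in cell assays for G-protein signaling and for β-arrestin recruitment. A relative activity (RA) value was derived by comparing the two readouts, taking both EC50 and Emax into account.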

For data set [4] the following is noted: patients following bunionectomy; cited from earlier work.
For data set [5] the following is noted: healthy volunteers; cited from earlier work.

T1 sequence (P35372 whole entry): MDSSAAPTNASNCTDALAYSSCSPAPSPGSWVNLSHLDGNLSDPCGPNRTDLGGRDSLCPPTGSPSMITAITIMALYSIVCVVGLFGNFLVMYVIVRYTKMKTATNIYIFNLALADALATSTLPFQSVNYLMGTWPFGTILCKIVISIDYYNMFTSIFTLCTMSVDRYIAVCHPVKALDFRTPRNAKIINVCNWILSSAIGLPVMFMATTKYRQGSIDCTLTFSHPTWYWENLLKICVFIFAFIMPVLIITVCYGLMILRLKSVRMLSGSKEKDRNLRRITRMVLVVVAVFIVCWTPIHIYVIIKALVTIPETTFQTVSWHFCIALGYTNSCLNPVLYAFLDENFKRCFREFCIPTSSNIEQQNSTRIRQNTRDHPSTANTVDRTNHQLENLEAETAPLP

`CN(C)C1(CNC(=O)N2Cc3ccccc3C2)CCCCC1` [Compound 54]: the melting point (commonly the temperature, or range, at which the solid turns liquid) is 225 to 227 °C. Besides, in data set [1], the Emax (in general, the greatest response seen or fitted, relative to the assay's reference) came to 20.8% and the EC50 (commonly the concentration needed to bring the measured effect to its halfway point) came to 4420 nM. In addition, in data set [2], the Emax came out at 113% and the EC50 amounted to 396 nM. Also, in data set [3], the “Bias Factor (ΔRA of compound relative to ΔRA of DAMGO) × 10” value was −3.04 and the ΔRA of compound is reported as −1.78.

`CN(C)C(C)(C)CNC(=O)N1Cc2ccc(F)cc2C1` [Compound 62] gave a melting point of 200 to 202 °C. In data set [1], the Emax was below 1% and the EC50 is above 100000 nM. For the same compound, in data set [2], the Emax is 81.8% and the EC50 is 21000 nM. Besides, in data set [3], the “Bias Factor (ΔRA of compound relative to ΔRA of DAMGO) × 10” value was below −14.83 and the ΔRA of compound is listed as below −2.96.

For the compound `COc1ccsc1CNCC[C@@]1(c2ccccn2)CCOC2(CCCC2)C1` [oliceridine, N-[(3-methoxythiophen-2-yl)methyl]-2-[(9R)-9-pyridin-2-yl-6-oxaspiro[4.5]decan-9-yl]ethanamine], the level of analgesia entry in data set [4] is given as “higher level of analgesia”. In addition, in data set [5], the “on-target adverse effects (nausea, decrease in respiratory drive)” value is on record as “decreased on-target adverse effects”.

For the compound `CN(C)[C@H](CCNC(=O)N[C@@H]1CCc2ccccc2C1)c1ccsc1` [Compound 72], the melting point lay within 147 to 149 °C. In data set [1], the “β-Arrestin Emax” value is 39.1% and the EC50 was found to be 2610 nM. In data set [2], the “cAMP Emax” value is 111.9% and the EC50 worked out at 197 nM. Also, in data set [3], the “Bias Factor (ΔRA of compound relative to ΔRA of DAMGO) × 10” value is on record as −0.99 and the ΔRA of compound is on record as −1.58.

On to `CN(C)C(CNC(=O)N1CCCc2cc(O)ccc21)c1ccsc1` (stereo not shown) [Compound 53], for which the melting point was 163 °C (dec.). Moreover, in data set [1], the Emax stood at 20.1% and the EC50 was 3790 nM. In data set [2], the Emax was 120% and the EC50 amounted to 267 nM. Also, in data set [3], the “Bias Factor (ΔRA of compound relative to ΔRA of DAMGO) × 10” value is −4.47 and the ΔRA of compound is listed as −1.93.

In turn, `CN(C)C1(CNC(=O)N2Cc3ccc(F)cc3C2)CCOCC1` [Compound 61] returned a melting point of 241 to 243 °C. In addition, in data set [1], the Emax worked out at 14.5% and the EC50 was above 100000 nM. Also, in data set [2], the Emax was determined as 104% and the EC50 is 1170 nM. In addition, in data set [3], the “Bias Factor (ΔRA of compound relative to ΔRA of DAMGO) × 10” value is reported as below −14.83 and the ΔRA of compound was below −2.96.

For `CN(C)C(CNC(=O)N1Cc2cccc(C#N)c2C1)c1ccsc1` (stereo not shown) [Compound 44], the melting point was in the range of 159 to 161 °C. In data set [1], the Emax was 5.3% and the EC50 was above 100000 nM. Further, in data set [2], the Emax was 51.4% and the concentration giving a half-maximal response (EC50) is 162 nM. Also, in data set [3], the “Bias Factor (ΔRA of compound relative to ΔRA of DAMGO) × 10” value is reported as below −14.83 and the ΔRA of compound is listed as below −2.96.

With `CN(C)C(CNC(=O)N[C@@H]1CCc2ccccc2C1)c1ccsc1` (stereo partly shown) [Compound 66], the melting point lay within 164 to 166 °C. Also, in data set [3], the “Bias Factor (ΔRA of compound relative to ΔRA of DAMGO) × 10” value is recorded as below −14.83 and the ΔRA of compound is listed as below −2.96.

Compound `CN(C)C1(CNC(=O)N[C@H]2CCc3ccccc3C2)CCCCC1` [Compound 56] came in with a melting point of 191 to 193 °C. In data set [1], the maximal response (Emax) is below 1% and the EC50 is above 100000 nM. In addition, in data set [2], the Emax worked out at 43.3% and the EC50 was 7740 nM. Also, in data set [3], the “Bias Factor (ΔRA of compound relative to ΔRA of DAMGO) × 10” value is given as below −14.83 and the ΔRA of compound is below −2.96.

Turning to `COc1ccc(C(CNC(=O)N2CCCc3cc(F)ccc32)N(C)C)cc1` (stereo not shown) [Compound 68a], the melting point fell in the range of 145 to 146 °C. Moreover, in data set [1], the Emax came out at 39.9% and the half-maximal effective concentration (EC50) was determined as 14600 nM. For the same compound, in data set [2], the Emax amounted to 94.6% and the EC50 was determined as 167 nM. Also, in data set [3], the “Bias Factor (ΔRA of compound relative to ΔRA of DAMGO) × 10” value was −8.36 and the ΔRA of compound is on record as −2.32.

The compound `CN(C)[C@@H](CCNC(=O)N[C@@H]1CCc2ccccc2C1)c1ccsc1` [Compound 73] registered a melting point of 147 to 148 °C. Also, in data set [1], the Emax was below 1% and the EC50 is above 100000 nM. In data set [2], the Emax is 13.6% and the EC50 was determined as 422 nM. Moreover, in data set [3], the “Bias Factor (ΔRA of compound relative to ΔRA of DAMGO) × 10” value is below −14.83 and the ΔRA of compound is listed as below −2.96.

`CN(C)[C@@H](CCNC(=O)N[C@H]1CCc2ccccc2C1)c1ccsc1` [Compound 74] came in with a melting point of 144 to 146 °C. Besides, in data set [1], the Emax was below 1% and the EC50 is above 100000 nM. Moreover, in data set [2], the Emax amounted to 11.2% and the EC50 was above 100000 nM.

With `CN(C)C1(CNC(=O)N[C@@H]2CCc3ccccc3C2)CCCCC1` [Compound 55], the melting point was in the range of 192 to 194 °C. Besides, in data set [1], the Emax was below 1% and the EC50 is above 100000 nM. For the same compound, in data set [2], the Emax was determined as 36.6% and the concentration for a half-maximal effect (EC50) is 2850 nM. In data set [3], the “Bias Factor (ΔRA of compound relative to ΔRA of DAMGO) × 10” value is reported as below −14.83 and the ΔRA of compound is below −2.96.

With `CN(C)C(CNC(=O)N[C@H]1CCc2ccccc2C1)c1ccsc1` (stereo partly shown) [Compound 67], the melting point was in the range of 165 to 167 °C. Moreover, in data set [1], the “β-Arrestin Emax” value was 2.6% and the EC50 is above 100000 nM. Besides, in data set [2], the “cAMP Emax” value stood at 50.9% and the EC50 came out at 13 nM. Besides, in data set [3], the “Bias Factor (ΔRA of compound relative to ΔRA of DAMGO) × 10” value was below −14.83 and the ΔRA of compound is given as below −2.96.

As for `CN(C)[C@H](CCNC(=O)N[C@@H]1CCc2ccccc2C1)c1ccsc1` [Compound 71], the melting point lay within 112 to 114 °C. For the same compound, in data set [1], the “β-Arrestin Emax” value is 10.5% and the EC50 turned out to be 1820 nM. Besides, in data set [2], the “cAMP Emax” value amounted to 71.2% and the EC50 was 177 nM. For the same compound, in data set [3], the “Bias Factor (ΔRA of compound relative to ΔRA of DAMGO) × 10” value is −3.66 and the ΔRA of compound is listed as −1.85.
